The source of these data is patent US4169157A, “Therapeutic preparations for peptic ulcers comprising aliphatic ketone derivative” (Eisai Co., Ltd., priority 1977, dated 1979).

Experiment [1] deals with cold and restraint stress ulcer. Description: Effect on the cold and restraint stress ulcer. The note with it: 200 mg/kg oral; for inhibition in vivo at 200 mg/kg: 2 h, read-out: Inhibition rate to the development of the cold and restraint stress ulcer; for Inhibition rate to the development of the ulcer (in words): compared with control compound A (Gefarnate). It counts as in vivo, SD strain female rats. The method, then:
Preventive effect of the test compounds on the development of the cold and restraint stress ulcer was estimated according to Levine's method [Proc. Soc. Exptl. Biol. Med., 124, 1221 (1967)], using SD strain female rats weighing about 170 g, and being 8-10 weeks old, as test animals.
All test compounds were suspended in 5% gum arabic solution and one drop of Tween 80, and the suspension was orally administered to rat. A dose amounted to 200 mg/kg, and the volume of the administrative dose was controlled to 0.5 ml/100 g B. W. As a blank test, 5% gum arabic solution was administered.
The administration of the test compounds and the blank test were carried out 30 minutes before adopting the cold and restraint stress.
The effect of the test compounds was estimated by finding the value (ulcer index) of the total length of the erosion observed in the glandular portion of the test animals two hours after the cold and restraint stress, and calculating the effect of the administration of said compounds as the inhibition rate of the development of the ulcer from the value. [formula]

The next experiment deals with subacute aspirin ulcer. Nature of the experiment: Effect on subacute aspirin ulcer. It counts as in vivo, SD strain male rats. The conditions noted are these: for inhibition in vivo at 200 mg/kg: 144 h, read-out: Inhibition rate to the development of the subacute aspirin ulcer; for Inhibitory effect on subacute aspirin ulcer (in words): 200 mg/kg/day for five days. The method, then: Aspirin in amount of 200 mg/kg/day was orally administered to SD strain male rats (body weight of about 250 g, nine weeks old) after abstinence from the food for 24 hours. The rats were fed for one hour, after one hour from said administration, and again abstained from the food. The administration of aspirin was continued for five days in the same schedule as mentioned above. The effect was estimated on the sixth day.
All the test compounds were emulsified with 5% gum arabic solution and one drop of Tween 80. The emulsions were administered continuously for five days, together with aspirin to rat. The dose amounted to 200 mg/kg/day, and the volume of the dose was controlled to 0.5 ml/100 g B. W. The blank test was similarly effected as pharmacological experiment 1.
The effect of the test compound was estimated by finding the value (ulcer index) of the total lengths of erosions developed in the glandular portion of the test animal with respect to the test compounds group and the blank test group, respectively, and calculating from said value the effect of the administration of the test compounds as the inhibition rate.

The subject of a further experiment is histamine ulcer. Nature of the experiment: Effect on the Histamine ulcer. It counts as in vivo, SD strain male rats. The note with it: 100 mg/kg oral; for inhibition in vivo at 100 mg/kg: read-out: Inhibition rate to the development of the histamine ulcer. As to the method:
According to the Okabe et al. method [[…] 26 (1) 89-93 (1975)], the inhibitory effects of the test compounds on the development of ulcer due to the administration of histamine were estimated using SD strain male rats weighing about 350 g as the test animals.
The methods for administration and estimation of the effect of the test compounds are carried out according to the procedure in pharmacological experiment 1.
A dose of the test compounds amounted to 100 mg/kg.
The histamine was administered intraperitoneally to the test animal in an amount of 200 mg/kg as the hydrochloride.
The effect was estimated 4 hours after the administration of the histamine.

The next experiment concerns indomethacin ulcer. Description: Effect on Indomethacin ulcer. The class given is in vivo, SD strain female rats. The conditions noted are these: for inhibition in vivo at 100 mg/kg: 4 h, read-out: Inhibition rate on the development of indomethacin ulcer. The method, then:
The inhibitory effects of the test compounds on the development of the ulcer due to the administration of indomethacin were estimated using SD strain female rats weighing about 200 g as the test animals.
The methods for administration and estimation of the effect of the test compounds are carried out according to the procedure in pharmacological experiment 2.
The dose of the test compound amounted to 100 mg/kg. The indomethacin was orally administered in the dose of 20 mg/kg. The effect was estimated four hours after the administration of indomethacin.

A further experiment relates to peptic ulcers. Nature of the experiment: Therapeutic effect on peptic ulcers (overall result of the pharmacological experiments). The class given is in vivo, SD strain rats. The conditions noted are these: from the results of the above-described pharmacological experiments.
The mark [2] stands for this setting: 30 minutes before stress, ulcer index two hours after stress, rat.
Setting [3] is: 200 mg/kg/day for five days together with aspirin 200 mg/kg/day oral, estimated on sixth day, rat.
[4] abbreviates: histamine 200 mg/kg intraperitoneally, 4 hours after histamine, rat.
[5] abbreviates: indomethacin 20 mg/kg oral, four hours after indomethacin, rat.

Entries after “also recorded” stand apart in the source; their conditions may differ.

With `CC(C)=CCCC(C)=CCCC(C)=CCCC(=O)OCC=C(C)CCC=C(C)C` [control compound A, reference compound], the inhibition in vivo at 200 mg/kg in experiment [1] (setting [2]) was 47.2%; in the experiment with subacute aspirin ulcer (setting [3]), 21%. In the experiment on histamine ulcer, the “Effect on the histamine ulcer of rat (in words)” value (from here on “Effect on the histamine ulcer”) was “no appreciable effect”. Moreover, the inhibition in vivo at 100 mg/kg in the experiment with histamine ulcer (setting [4]) came to 15.4%; in the experiment with indomethacin ulcer (setting [5]), 45%.
As for `CC(C)=CCCC(C)=CCCC(C)=CCCC(C)=CCCC(=O)C(C)C` [subject compound C, 2,7,11,15,19-pentamethyl-6,10,14,18-eicosatetraene-3-on], in experiment [1], the “Inhibition rate to the development of the ulcer (in words)” value (shortened to “Inhibition rate … (in words)”) was “higher than that of the control compound A”. Moreover, the inhibition in vivo at 200 mg/kg in experiment [1] (setting [2]) is 67.1%; with subacute aspirin ulcer (setting [3]), 50.9%. Besides, the results for the inhibition in vivo at 100 mg/kg with histamine ulcer (setting [4]) and in the experiment on indomethacin ulcer (setting [5]) were 44.7% and 86.7%, respectively. Moreover, in the experiment on indomethacin ulcer (100 mg/kg), the “Inhibitory effect on the development of the indomethacin ulcer (in words)” value (from here on “Inhibitory effect on the development”) is listed as “Particularly high inhibitory effect”. In addition, the “Therapeutic effect on the peptic ulcers (in words)” value (shortened to “Therapeutic effect”) in the experiment with peptic ulcers is “high therapeutic effect on the peptic ulcers”.
`CC(=O)C(CC=C(C)CCC=C(C)CCC=C(C)CCC=C(C)C)C(C)=O` [subject compound G, 3-acetyl-6,10,14,18-tetramethyl-5,9,13,17-nonadecatetraene-2-on]: the “Inhibition rate … (in words)” value in experiment [1] was “higher than that of the control compound A”. The inhibition in vivo at 200 mg/kg in experiment [1] (setting [2]) was 70.5%; in the experiment on subacute aspirin ulcer (setting [3]), 64.5%. The results for the inhibition in vivo at 100 mg/kg in the experiment on histamine ulcer (setting [4]) and with indomethacin ulcer (setting [5]) were 40.8% and 64.9%, respectively. Further, the “Therapeutic effect” value with peptic ulcers is given as “high therapeutic effect on the peptic ulcers”.
As to `CCCC(=O)CCC=C(C)CCC=C(C)CCC=C(C)CCC=C(C)C` [subject compound F, 8,12,16,20-tetramethyl-7,11,15,19-heneicosatetraene-4-on], the “Inhibition rate … (in words)” value in experiment [1] was “higher than that of the control compound A”. For the same compound, the figures for the inhibition in vivo at 200 mg/kg (in experiment [1] (setting [2]); in the experiment with subacute aspirin ulcer (setting [3])) were 69.5% and 52.7%, respectively. The “Effect on the histamine ulcer” value in the experiment on histamine ulcer is “more inhibitory effect than that of the control compound”. Further, the inhibition in vivo at 100 mg/kg with histamine ulcer (setting [4]) came to 49%; in the experiment with indomethacin ulcer (setting [5]) it was 88.5%. Moreover, the “Inhibitory effect on the development” value in the experiment with indomethacin ulcer (100 mg/kg) is “Particularly high inhibitory effect”. For the same compound, the “Therapeutic effect” value in the experiment with peptic ulcers is recorded as “high therapeutic effect on the peptic ulcers”.
With “6,10,14-trimethyl-5,9,13-octadecatriene-2-on [subject compound A]”, in experiment [1] (setting [2]), the “Inhibition rate to the development of the cold and restraint stress ulcer” value amounted to 71.4%. The “Inhibition rate … (in words)” value in experiment [1] is given as “higher than that of the control compound A”. In the experiment on subacute aspirin ulcer (setting [3]), the “Inhibition rate to the development of the subacute aspirin ulcer” value is 56.7%. For the same compound, in the experiment on histamine ulcer, the “Effect on the histamine ulcer” value is on record as “more inhibitory effect than that of the control compound”. Moreover, in the experiment with histamine ulcer (setting [4]), the “Inhibition rate to the development of the histamine ulcer” value is 50.4%. Moreover, in the experiment with indomethacin ulcer (100 mg/kg, indomethacin 20 mg/kg oral, four hours after indomethacin, rat), the “Inhibition rate on the development of indomethacin ulcer” value is 75.4%. In the experiment on peptic ulcers, the “Therapeutic effect” value was “high therapeutic effect on the peptic ulcers”.
Regarding `CC(=O)CCCC(C)CCCC(C)CCCC(C)CCCC(C)C` (stereo not shown) [subject compound E, 6,10,14,18-tetramethyl-nonadecane-2-on], the “Inhibition rate … (in words)” value in experiment [1] is “higher than that of the control compound A”. For the same compound, the inhibition in vivo at 200 mg/kg in experiment [1] (setting [2]) is 67.8%; in the experiment with subacute aspirin ulcer (setting [3]), 48.5%. Further, the inhibition in vivo at 100 mg/kg with histamine ulcer (setting [4]) was found to be 22.4%; with indomethacin ulcer (setting [5]) it was 71.1%. Moreover, in the experiment with peptic ulcers, the “Therapeutic effect” value is “high therapeutic effect on the peptic ulcers”.
Consider `CC(=O)CCC=C(C)CCC=C(C)CCC=C(C)CCC=C(C)C` [subject compound B, 6,10,14,18-tetramethyl-5,9,13,17-nonadecatetraene-2-on], for which the “Inhibition rate … (in words)” value in experiment [1] was “higher than that of the control compound A; also recorded: particularly the most effective compound”. Also, the inhibition in vivo at 200 mg/kg was 75.7% in experiment [1] (setting [2]) and 73.2% with subacute aspirin ulcer (setting [3]). Further, in the experiment with subacute aspirin ulcer, the “Inhibitory effect on subacute aspirin ulcer (in words)” value is listed as “Inhibitory effect was shown”. The “Effect on the histamine ulcer” value in the experiment on histamine ulcer is listed as “more inhibitory effect than that of the control compound”. For the same compound, the figures for the inhibition in vivo at 100 mg/kg with histamine ulcer (setting [4]) and in the experiment with indomethacin ulcer (setting [5]) were 53.8% and 91.3%, respectively. Also, the “Inhibitory effect on the development” value in the experiment on indomethacin ulcer (100 mg/kg) was “Particularly high inhibitory effect”. Besides, in the experiment on peptic ulcers, the “Therapeutic effect” value is given as “high therapeutic effect on the peptic ulcers”.
For `CC(=O)CCC=C(C)CCCC(C)CCCC(C)CCCC(C)C` (stereo not shown) [subject compound D, 6,10,14,18-tetramethyl-5-nonadecaene-2-on], the “Inhibition rate … (in words)” value in experiment [1] was “higher than that of the control compound A”. The values for the inhibition in vivo at 200 mg/kg (in experiment [1] (setting [2]); in the experiment with subacute aspirin ulcer (setting [3])) were 72% and 61.8%, respectively. Moreover, in the experiment on subacute aspirin ulcer, the “Inhibitory effect on subacute aspirin ulcer (in words)” value is reported as “Inhibitory effect was shown”. For the same compound, the inhibition in vivo at 100 mg/kg was determined as 35.2% in the experiment with histamine ulcer (setting [4]) and 75.5% in the experiment on indomethacin ulcer (setting [5]). Moreover, the “Therapeutic effect” value in the experiment on peptic ulcers is on record as “high therapeutic effect on the peptic ulcers”.
